Key:
Y128 neurons = details: 5 μM given 24 h before 0.1 mM H2O2 for 6 h, p=0.001
Description: Mitochondrial membrane potential (Δψm) was assessed in cortical and striatal neurons using the positively changed fluorescent probe TMRM (tetramethylrhodamine methyl ester) (Thermo Fisher Sci., catalog no: T668) and in cortical/striatal co-cultures and lymphoblasts using an equivalent probe, TMRE (tetramethylrhodamine ethyl ester) (Abcam, catalog no. ab113852).
TMRE assay: Primary neurons and lymphoblasts in suspension were cultured in 6-well plates.

HD-NSCs = assay: cells; details: Homo sapiens, 24 h, read-out: reduction of the increase in H2O2 levels induced by complex III inhibition
Description: NSCs were plated at 30,000 cells/well in 96-well assay plates coated with Geltex® for 24 h at 37° C. Afterwards, NSCs were incubated for another 24 h with 1 μM pridopidine. […] MitoPY1 fluorescence was obtained with a Microplate Spectrofluorometer Gemini EM (Molecular Devices, USA) using wavelength parameters described above. Basal levels were measured for 10-15 minutes followed by exposure to 3 μM myxothiazol (mitochondrial complex III inhibitor. Sigma-Aldrich, catalog no: T5580) and measured for an additional 30 minutes. The results were calculated as RFU per 30,000 cells.

[1] = test system: HD-iPSC-derived neural stem cells (HD-NSCs)
Description: Neural induction occurred between day 0 and days 12-15. From day 0 to day 5, cells were maintained in iPSC medium without FGF2 and incubated with 5 μM dorsomorphin and 10 μM SB431542. Medium was changed every other day. […] Between days 12 and 15, fields full of rosettes became morphologically visible. To allow the cells to differentiate, cells were replated in Geltrex® coated 12-well plates. For detaching, 500 μl of 1×Accutase® (Thermo Fisher Sci., catalog no: A1110501) was added to the plate and incubated at 37° C. in 5% CO2, for 15-20 min. Accutase was diluted in DMEM/F12 medium pre-warmed to 37° C. Cells were collected and spun for 3 min at 200×g at room temperature, and resuspended in 200 μl of media into 12-well plates. […] Cells were incubated overnight at 37° C., 5% CO2. Cells were passaged every 2-3 days for no more than 10-12 passages.
Oxygen consumption rate (OCR) in WT and hemizygous YAC128 cortical/striatal co-cultures and NSCs was measured using Seahorse XFe-24/96 flux analyzers (Seahorse Bioscience, Billerica, MA, USA) following the manufacturer's instructions. […] Pridopidine (0.1, 1 and/or 5 μM) was added, when indicated in the graphs, 24 h before the experiment. The sensor cartridge plate was incubated with immersed sensors in a non-CO2 incubator at 37° C. for ~16 h (overnight). […] The cell medium was aspirated gently to avoid disturbing cell monolayers. […] Accordingly, mitochondrial basal respiration, maximal respiration and ATP production was automatically calculated and recorded by the Seahorse software. Data was normalized for protein levels.

YAC128 mice = details: 30 mg/kg/day oral gavage 45 days, vs vehicle-treated HD mice, p=0.0270
Description: 1.5-month-old WT and hemizygous YAC128 mice (males and females in equal proportion) were divided into four groups. […] Mice were divided 4 animals per cage enriched in corn-husk nesting material and paper rolls, each cage representing one individual experiment, for a total of 9 animals per group. Pridopidine was dissolved in deionized sterile water. Animals were weighed every week and the volume of treatment adjusted accordingly. Mice were behaviorally tested in rotarod immediately before commencing treatment and on the day before finishing treatment. Tests were conducted blindly at a set time during the day. Mice were sacrificed 24 h after administration of the final pridopidine dose, and mitochondria isolated from the striatum.

HD human lymphoblasts = details: pridopidine 24 h prior to H2O2 6 h, p=0.0016
Description: Cell viability was assessed on lymphoblasts using the MTS assay, a measure of mitochondrial function and cell survival. The assay was performed according to the manufacturer's instructions (Promega, catalog no. G1112). In the day of experiment, MTS reagent was added to the culture media (1:10) and incubated at 37° C. for 4 hours. Then, lymphoblasts were centrifuged at 145×g for 5 min and media was collected. The absorbance of the formazan dye produced by viable cells was quantified in the medium at OD=490 nm.

[2] = test system: S1R-dependence of eIF2α phosphorylation in HEK 293 cells; details: 8 h
Description: HEK 293 cells were transfected with plasmids carrying Cas9 and 3 different guide RNAs (gRNA) targeting human Sigma1-R and a control gRNA. Ten days after transfection and selection with puromycin, cell lysates of the pools of selected cells were tested for S1R knockout by immunoblotting. […] Subsequent cloning by dilution produced, after 4 weeks, several clones with complete knockout of Sigma1-R for each gRNA.
Cells were lysed in PBS containing 1% Triton X-100, 0.5% sodium deoxycholate with protease inhibitors and centrifuged to pellet insoluble aggregates, debris and nuclei. Phosphatase inhibitor cocktail 2 and 3 and 10 mM 0-glycerol phosphate were added to the lysis buffer to inhibit phosphatases for detection of phosphorylated proteins. Supernatants were separated from pellets and incubated in loading buffer for 5 min at 100° C., pellets were incubated for 10 min at 100° C. After SDS-PAGE and transfer to nitrocellulose membrane, blocking was done in 5% low-fat milk and 0.1% Tween-20 in PBS for 1 h. Incubation with the primary antibody was overnight at 4° C. and after three washes in 0.1% Tween-20 in PBS, incubation with the appropriate secondary antibody was for 1 h at room temperature. After washing, enhanced chemiluminescence assay was performed and the membrane was exposed and quantified in a Bio-Rad ChemiDocXRS Imaging System (Bio-Rad, Hercules, CA).

[3] = test system: CHOP, GADD34, ATF6, XBP1s in cells expressing myc-Htt96Q or myc-Htt20Q
Description: Total cell RNA was extracted with TRIzol reagent (Invitrogen) according to the manufacturer's instructions. […] Real-time PCR was carried out using a CFX Connect Real-Time PCR Detection System (BioRad) and the amplifications were done using the SYBR Green PCR Master Mix (Cat.No. pb089617-100-1) (Pcrbio). Reactions were run in triplicates in three independent experiments. Housekeeping gene GAPDH was used as an internal control to normalize the variability of expression levels.
Cells were lysed in PBS containing 1% Triton X-100, 0.5% sodium deoxycholate with protease inhibitors and centrifuged to pellet insoluble aggregates, debris and nuclei. Phosphatase inhibitor cocktail 2 and 3 and 10 mM […] phosphate were added to the lysis buffer to inhibit phosphatases for detection of phosphorylated proteins. Supernatants were separated from pellets and incubated in loading buffer for 5 min at 100° C., pellets were incubated for 10 min at 100° C. After SDS-PAGE and transfer to nitrocellulose membrane, blocking was done in 5% low-fat milk and 0.1% Tween-20 in PBS for 1 h. Incubation with the primary antibody was overnight at 4° C. and after three washes in 0.1% Tween-20 in PBS, incubation with the appropriate secondary antibody was for 1 h at room temperature. After washing, enhanced chemiluminescence assay was performed and the membrane was exposed and quantified in a Bio-Rad ChemiDocXRS Imaging System (Bio-Rad, Hercules, CA).

[4] = test system: WT and YAC128 striatal neurons
Description: Briefly, plasmid was diluted in TE (in mM: 1 Tris-HCl pH 7.3, 1 mM EDTA), followed by the addition of CaCl2 (in mM: 2.5 CaCl2 in 10 HEPES, pH 7.2). The DNA solution was carefully added to 2×HEBS (in mM: 12 dextrose, 50 HEPES, 10 KCl, 280 NaCl and 1.5 Na2HPO4·2H2O, pH 7.2) while bubbling air through the solution. The mixture was then incubated for 25 min at room temperature. The precipitates were added dropwise to the coverslips in Neurobasal medium and incubated for 80 minutes at 37° C. The DNA-Ca^2+-phosphate precipitates were dissolved with freshly-made dissolution medium (Neurobasal medium with 20 mM HEPES, pH 6.8) and incubated for 7 min at room temperature. The transfected neurons were then washed with Neurobasal medium and transferred back to their original dishes containing conditioned culture medium until DIV12.
MitoDsRed-transfected striatal neurons were fixed with 4% paraformaldehyde (pre-warmed at 37° C.) for 20 minutes, permeabilized in 0.2% Triton X-100 in PBS for 2 minutes and blocked for 1 hour at room temperature in 3% (w/v) BSA in PBS. […] Confocal images were obtained as stacks, at 0.46 μm intervals along the z axis, using a Plan-Apochromat/1.4NA 63× lens on an Axio Observer.Z1 confocal microscope (Zeiss Microscopy, Germany) with Zeiss LSM 710 software. FIJI (ImageJ, National Institute of Health, USA) was used for image analysis. […] To optimally resolve individual mitochondria, a threshold was applied followed by the Analyze Particles function to trace mitochondrial outlines. For S1R and IP3R3 fluorescence, a threshold was set similarly to the one described above, and Integrated Density was obtained. S1R and IP3R3 Integrated Density was calculated inside of mitochondrial ROIs selection to obtain ER co-localization with mitochondria.

[5] = cells expressing mutant Htt96Q, 48 h
[6] = YAC128 striatal neurons, 1 μM, 24 h

SMILES: CCCN1CCC(c2cccc(S(C)(=O)=O)c2)CC1 [Pridopidine, 4-[3-(methylsulfonyl)phenyl]-1-propyl-piperidine]
- H2O2-induced loss of MMP (TMRE) (Y128 neurons): completely reverts this H2O2-induced loss of MMP
- inhibition at 1 µM (HD-NSCs): ~42%
- ATP production [1]: shows a trend towards increasing ATP production
- maximal respiration [1]: also increases
- mitochondrial basal respiration [1]: also increases mitochondrial basal
- motor performance, latency to fall in accelerated rotarod (YAC128 mice): significant motor improvement
- increase in cell viability (HD human lymphoblasts): approximately 50%
- eIF2α-P levels ([2]; S1R expressing control clone expressing Htt96Q): significantly reduces eIF2α-P levels
- concentration of maximal effect on eIF2α phosphorylation ([2]; control clone expressing myc-Htt96Q): 3 µM
- reduction in ATF6 fragment ([3]; Htt96Q-expressing cells, 3 μM): 35%
- reduction in XBP-1s mRNA (IRE1 pathway) ([3]; Htt96Q-expressing cells, 3 μM): 25%
- CHOP and GADD34 levels ([3]; cells expressing Htt20Q): does not affect these factors
- reduction of CHOP levels [3, 5]: 2.5 fold
- reduction of GADD34 levels [3, 5]: 7 fold
- S1R co-localization with mitochondria ([4]; Y128 neurons, 1 μM, 24 h, p<0.0001): increase in IP3R and S1R co-localization with mitochondria
- IP3R co-localization with mitochondria ([4]; Y128 neurons, 1 μM, 24 h, p=0.0001): increase in IP3R and S1R co-localization with mitochondria
- total S1R protein levels ([4]; Y128 striatal neurons): restores S1R levels to WT levels
- S1R total levels in neurites [4, 6]: significantly increases S1R levels
- S1R total levels in soma [4, 6]: significantly increases S1R levels

From patent US12685725B2, “Pridopidine for the treatment of mitochondrial-associated diseases and disorders and endoplasmic reticulum (ER) stress” (PRILENIA NEUROTHERAPEUTICS LTD., priority 2019, dated 2026)
